Source: patent publication US20170196296A1, “Amphoteric Metal Compound-Treated Substrate And Methods For Reduction Of Body Odor Using Treated Substrates” (priority 2016, published 2017)

Assay: solubility of copper hydroxide in ammonia solutions
Assay type: physicochemical
Source text: If the substrate is desirably a keratin-based material, then the substrate is selected from materials such as wool or hair (such as alpaca hair), and the AMH compound is preferably copper hydroxide (Cu[OH]2), which can be dissolved in an ammonia solution, resulting in an aqua ammonia solution of Schweizer's reagent, Cu[NH3]4[H2O]2][OH]2. […] Standard aqua ammonia (25%) saturates at only about 3% copper hydroxide W/W, and the concentrated ammonia solution is hazardous to breathe. However, the ammonia in the aqua ammonia+copper hydroxide solution can be mostly substituted with harmless ingredients. For example, a wool substrate can be soaked in an aqueous solution which is composed of only 3% ammonia, 4% W/W of ammonium chloride and 10% W/W of sodium carbonate will also dissolve 3% copper hydroxide, and after drying, the ammonium chloride and sodium carbonate can be rinsed away. A wool substrate thus treated will retain as much copper hydroxide as a substrate treated in solution of 3% copper hydroxide (saturated solution) in aqua ammonia (25% ammonia). Upon being soaked in either formula of 3% copper hydroxide solution, the surface of the wool immediately absorbs the copper hydroxide. Excess solution is squeezed out of the substrate material, and the substrate is allowed to dry. […]

SMILES: [OH][Cu][OH] [Cu(OH)2, copper(ii) hydroxide]
- amount dissolved in aqueous ammonia/ammonium chloride/sodium carbonate solution (3% ammonia, 4% W/W ammonium chloride, 10% W/W sodium carbonate): 3%
- saturation concentration in standard aqua ammonia (aqua ammonia (25%)): about 3 % W/W
